# In patent US20210255193A1, “LYSINE REACTIVE PROBES AND USES THEREOF” (The Scripps Research Institute, priority 2017, published 2021):
# Experiments:
# Assay in all cases: competitive isoTOP-ABPP
# Type in all cases: binding
# [1] = biological target: T1, EIF3G Eukaryotic translation initiation factor 3 subunit (Homo sapiens, UniProt O75821); settings: for R value (DMSO/fragment) for probe 1 labeling: O75821_K280; for R value (DMSO/fragment) for probe 1 labeling / isoTOP-ABPP reactivity ratio at lysine O75821_K280: 231 sol; for isoTOP-ABPP ratio, lysine O75821_K280: 50 uM_231_sol_in vitro
# T1 construct: isoTOP-ABPP experiments performed in cell lysates (in vitro); endogenous in cells; host or cells: MDA-MB-231 soluble lysate
# Outline: (§1)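 Cell lysate treated in vitro with fragments (50 μM activated esters, 100 μM guanidinylating agents) or DMSO, labelled 1 h at ambient temperature with 0.1 mM STP-alkyne, CuAAC-tagged with light/heavy TEV tags, analysed by MS. R = DMSO/compound MS1 peak-area ratio; lysines with R≥4 called liganded.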
# [2] = biological target: T2, PSMC6 26S protease regulatory subunit 10B (Homo sapiens, UniProt P62333); settings: for isoTOP-ABPP reactivity ratio at lysine P62333_K72 / isoTOP-ABPP ratio (R) at liganded lysine P62333_K72: 50 uM, in vitro; for isoTOP-ABPP reactivity ratio at lysine P62333_K72: 231 sol; for isoTOP-ABPP ratio (R) at liganded lysine P62333_K72: sol, 231
# T2 construct: isoTOP-ABPP experiments performed in cell lysates (in vitro); endogenous in cells; host or cells: soluble proteome of human cancer cell lines (MDA-MB-231, Ramos, Jurkat)
# Outline: as §1
# [3] = biological target: T3, MTHFD1 C-1-tetrahydrofolate synthase, cytoplasmic (Homo sapiens, UniProt P11586); settings: for isoTOP-ABPP reactivity ratio at lysine P11586_K760 / isoTOP-ABPP ratio (R) at liganded lysine P11586_K760: 50 uM, in vitro; for isoTOP-ABPP reactivity ratio at lysine P11586_K760: 231 sol; for isoTOP-ABPP ratio (R) at liganded lysine P11586_K760: sol, 231
# T3 construct: isoTOP-ABPP experiments performed in cell lysates (in vitro); endogenous in cells; host or cells: MDA-MB-231 soluble lysate
# T3 sequence (P11586 1-935): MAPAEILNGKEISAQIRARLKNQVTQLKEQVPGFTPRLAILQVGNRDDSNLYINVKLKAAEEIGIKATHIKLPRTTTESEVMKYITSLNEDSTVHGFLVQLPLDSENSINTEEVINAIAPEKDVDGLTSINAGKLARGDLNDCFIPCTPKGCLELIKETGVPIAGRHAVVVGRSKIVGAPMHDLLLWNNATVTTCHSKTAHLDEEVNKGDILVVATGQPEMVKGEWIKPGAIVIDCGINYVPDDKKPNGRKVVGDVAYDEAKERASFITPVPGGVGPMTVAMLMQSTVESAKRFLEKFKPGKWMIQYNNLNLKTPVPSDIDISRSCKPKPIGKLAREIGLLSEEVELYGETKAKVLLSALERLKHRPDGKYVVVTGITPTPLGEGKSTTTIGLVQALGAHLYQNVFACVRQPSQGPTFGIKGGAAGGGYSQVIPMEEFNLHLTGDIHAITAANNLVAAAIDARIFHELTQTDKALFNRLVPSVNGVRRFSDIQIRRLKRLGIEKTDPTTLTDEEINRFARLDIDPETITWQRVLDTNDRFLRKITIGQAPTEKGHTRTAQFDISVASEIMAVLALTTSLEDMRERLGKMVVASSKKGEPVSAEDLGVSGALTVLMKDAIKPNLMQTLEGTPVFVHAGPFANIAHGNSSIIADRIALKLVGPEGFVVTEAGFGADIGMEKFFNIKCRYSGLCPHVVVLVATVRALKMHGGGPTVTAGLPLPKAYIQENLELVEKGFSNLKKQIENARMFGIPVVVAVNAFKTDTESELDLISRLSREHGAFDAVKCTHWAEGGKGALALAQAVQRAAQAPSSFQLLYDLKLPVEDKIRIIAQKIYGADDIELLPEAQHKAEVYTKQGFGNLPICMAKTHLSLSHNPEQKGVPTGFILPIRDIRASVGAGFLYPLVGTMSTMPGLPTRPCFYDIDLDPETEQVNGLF
# Outline: as §1
# [4] = biological target: T4, RPL9P9 60S ribosomal protein L9 (Homo sapiens, UniProt P32969); settings: for isoTOP-ABPP reactivity ratio at lysine P32969_K82 / isoTOP-ABPP ratio (R) at liganded lysine P32969_K82: 50 uM, in vitro; for isoTOP-ABPP reactivity ratio at lysine P32969_K82: 231 sol; for isoTOP-ABPP ratio (R) at liganded lysine P32969_K82: sol, 231; for isoTOP-ABPP ratio, lysine P32969_K82: 50 uM_231_sol_in vitro
# T4 construct: isoTOP-ABPP experiments performed in cell lysates (in vitro); endogenous in cells; host or cells: soluble proteome of human cancer cell lines (MDA-MB-231; Ramos and Jurkat also prepared)
# Outline: as §1
smiles,measurement,setting,value
"O=C(Oc1c(F)c(F)c(F)c(F)c1F)C(c1ccccc1)c1ccccc1 [fragment 20, Pentafluorophenyl 2,2-diphenylacetate]",R value (DMSO/fragment) for probe 1 labeling,"[1]; 50 uM, in vitro",0.9
"O=C(Oc1c(F)c(F)c(F)c(F)c1F)c1cc(C(F)(F)F)cc(C(F)(F)F)c1 [fragment 21, Pentafluorophenyl 3,5-bis(trifluoromethyl)benzoate]",R value (DMSO/fragment) for probe 1 labeling,"[1]; 50 uM, in vitro",1.7
"Cn1cc(CC(=O)Oc2c(F)c(F)c(F)c(F)c2F)c2ccccc21 [fragment 22, Pentafluorophenyl 2-(1-methyl-1H-indol-3-yl)acetate]",R value (DMSO/fragment) for probe 1 labeling,"[1]; 50 uM, in vitro",0.6
"CCn1cc(C(=O)Oc2c(F)c(F)c(F)c(F)c2F)c(=O)c2ccc(C)nc21 [fragment 28, Pentafluorophenyl 1-ethyl-7-methyl-4-oxo-1,4-dihydro-1,8-naphthyridine-3-carboxylate]",isoTOP-ABPP reactivity ratio at lysine P62333_K72,[2],20.0
"O=C(CCc1cn(-c2ccccc2)nc1-c1ccccc1)Oc1ccc([N+](=O)[O-])cc1[N+](=O)[O-] [fragment 29, 2,4-Dinitrophenyl 3-(1,3-diphenyl-1H-pyrazol-4-yl)propanoate]",isoTOP-ABPP reactivity ratio at lysine O75821_K280,"[1]; 50 uM, in vitro",5.3
same,isoTOP-ABPP reactivity ratio at lysine P62333_K72,[2],20.0
"O=C(Oc1ccc([N+](=O)[O-])cc1[N+](=O)[O-])C(c1ccccc1)c1ccccc1 [fragment 30, 2,4-Dinitrophenyl 2,2-diphenylacetate]",isoTOP-ABPP reactivity ratio at lysine O75821_K280,"[1]; 50 uM, in vitro",1.0
same,isoTOP-ABPP reactivity ratio at lysine P11586_K760,[3],0.9
"O=C(Oc1ccc([N+](=O)[O-])cc1[N+](=O)[O-])c1cc(C(F)(F)F)cc(C(F)(F)F)c1 [fragment 31, 2,4-Dinitrophenyl 3,5-bis(trifluoromethyl)benzoate]",isoTOP-ABPP reactivity ratio at lysine P11586_K760,[3],0.8
same,isoTOP-ABPP reactivity ratio at lysine P32969_K82,[4],0.9
"Cn1cc(CC(=O)Oc2ccc([N+](=O)[O-])cc2[N+](=O)[O-])c2ccccc21 [fragment 32, 2,4-Dinitrophenyl 2-(1-methyl-1H-indol-3-yl)acetate]",isoTOP-ABPP reactivity ratio at lysine P11586_K760,[3],0.6
same,isoTOP-ABPP reactivity ratio at lysine P62333_K72,[2],1.4
same,isoTOP-ABPP reactivity ratio at lysine P32969_K82,[4],1.0
"O=C(Oc1ccc([N+](=O)[O-])cc1[N+](=O)[O-])c1ccc2ccccc2n1 [fragment 35, 2,4-Dinitrophenyl quinoline-2-carboxylate]",isoTOP-ABPP ratio (R) at liganded lysine O75821_K280,"[1]; 50 uM, in vitro, sol, 231",1.0
same,isoTOP-ABPP ratio (R) at liganded lysine P32969_K82,[4],0.8
"O=C(Oc1ccc([N+](=O)[O-])cc1[N+](=O)[O-])c1ccc(-c2ccccc2)cc1 [fragment 37, 2,4-Dinitrophenyl [1,1′-biphenyl]-4-carboxylate]",isoTOP-ABPP ratio (R) at liganded lysine P62333_K72,[2],0.9
"O=C(CC12CC3CC(CC(C3)C1)C2)Oc1ccc([N+](=O)[O-])cc1[N+](=O)[O-] [fragment 38, 2,4-Dinitrophenyl 2-(adamantan-1-yl)acetate]",isoTOP-ABPP ratio (R) at liganded lysine P11586_K760,[3],1.3
"O=C(Oc1ccc([N+](=O)[O-])cc1[N+](=O)[O-])c1ccc(Oc2ccccc2)cc1 [fragment 39, 2,4-Dinitrophenyl 4-phenoxybenzoate]",isoTOP-ABPP ratio (R) at liganded lysine P62333_K72,[2],1.1
same,isoTOP-ABPP ratio (R) at liganded lysine P32969_K82,[4],0.7
"CC(C)(C)OC(=O)NCCCC(=O)Oc1ccc([N+](=O)[O-])cc1[N+](=O)[O-] [fragment 41, 2,4-Dinitrophenyl 4-((tert-butoxycarbonyl)amino)butanoate]",isoTOP-ABPP ratio (R) at liganded lysine P11586_K760,[3],4.2
same,isoTOP-ABPP ratio (R) at liganded lysine P62333_K72,[2],1.2
same,isoTOP-ABPP ratio (R) at liganded lysine P32969_K82,[4],0.9
"CC(=O)Oc1ccc([N+](=O)[O-])cc1[N+](=O)[O-] [fragment 43, 2,4-Dinitrophenyl acetate]",isoTOP-ABPP ratio (R) at liganded lysine P62333_K72,[2],1.9
same,isoTOP-ABPP ratio (R) at liganded lysine P32969_K82,[4],0.9
"N#Cc1ccc(C(=O)Oc2ccc([N+](=O)[O-])cc2[N+](=O)[O-])cc1 [fragment 44, 2,4-Dinitrophenyl 4-cyanobenzoate]","isoTOP-ABPP ratio, lysine O75821_K280",[1],0.9
same,"isoTOP-ABPP ratio, lysine P32969_K82",[4],14.5
"O=C(CCc1ccc2c(c1)OCO2)Oc1ccc([N+](=O)[O-])cc1[N+](=O)[O-] [fragment 45, 2,4-Dinitrophenyl 3-(benzo[d][1,3]dioxol-5-yl)propanoate]","isoTOP-ABPP ratio, lysine O75821_K280",[1],0.9
same,"isoTOP-ABPP ratio, lysine P32969_K82",[4],1.0
"O=C(ON1C(=O)CCC1=O)c1cc(C(F)(F)F)cc(C(F)(F)F)c1 [fragment 46, 3,5-Bis(trifluoromethyl)benzoic acid NHS ester]","isoTOP-ABPP ratio, lysine O75821_K280",[1],0.8
same,"isoTOP-ABPP ratio, lysine P62333_K72",[2]; 50 uM_231_sol_in vitro,0.9
same,"isoTOP-ABPP ratio, lysine P32969_K82",[4],0.5
"CC(C)(C)OC(=O)N=C(NC(=O)OC(C)(C)C)n1cccn1 [fragment 50, reference compound]","isoTOP-ABPP ratio, lysine P11586_K760",[3]; 100 uM_231_sol_in vitro,0.6
same,"isoTOP-ABPP ratio, lysine P62333_K72",[2]; 100 uM_231_sol_in vitro,1.3
